{"source": "patent US4997818A", "about": "“Therapeutic method for selectively treating terminal deoxynucleotidyl transferase-positive neoplastic leukemias and lymphomas” (The University Hospital, priority 1989, dated 1991)", "key": {"[1]": {"biological_target": "T1, terminal deoxynucleotidyl transferase (TdT) (Bos taurus, UniProt P06526)", "T1 construct": "purchased DuPont/NEN Products, Boston, Massachusetts; host or cells: calf thymus", "T1 sequence (P06526 whole entry)": "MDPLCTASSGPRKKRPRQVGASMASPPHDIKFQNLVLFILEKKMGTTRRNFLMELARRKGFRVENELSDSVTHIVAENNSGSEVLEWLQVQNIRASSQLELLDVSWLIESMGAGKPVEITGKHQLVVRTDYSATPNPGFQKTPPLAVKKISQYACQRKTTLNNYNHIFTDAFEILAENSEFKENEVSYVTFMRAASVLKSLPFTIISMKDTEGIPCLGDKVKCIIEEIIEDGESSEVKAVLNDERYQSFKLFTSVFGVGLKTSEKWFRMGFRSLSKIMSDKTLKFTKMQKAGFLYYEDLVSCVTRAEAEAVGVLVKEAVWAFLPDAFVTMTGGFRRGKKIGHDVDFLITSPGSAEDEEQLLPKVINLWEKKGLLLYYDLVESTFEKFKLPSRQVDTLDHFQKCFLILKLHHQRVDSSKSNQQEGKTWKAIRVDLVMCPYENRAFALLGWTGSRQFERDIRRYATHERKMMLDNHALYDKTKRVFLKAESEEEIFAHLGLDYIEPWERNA", "assay": "TdT enzyme assay (3H-dGTP incorporation)", "assay_type": "biochemical, calf", "method": "(§1) Initially, the effect of various ddNTPs on TdT and DNA polymerase alpha was evaluated. DNA polymerase alpha, purified from calf thymus according to Kornberg [DNA Replication, W.H. Freeman and Company, 1980, p 206]and Wahl et al. [Biochemistry 23:1895 (1984)] was purchased from Pharmacia, Inc. (Piscataway, N.J.). TdT, purified from calf thymus, was purchased from DuPont/NEN Products, Boston, Massachusetts). Enzyme assays were conducted at 37 C. under conditions established to be optimal for each assay. For DNA polymeraseα, 0.1 ml of reaction mixture contained: 0.05 M tris-HCl (pH 8.3); 4 mM dithiothreitol; 4 mM MgCl; 10 ug poly(dAT); 0.05 mM ^3 H-dATP; 0.05 mM dTTP; and 0.05 units of enzyme. For TdT assays, 0.1 ml of standard reaction mixture contained: 0.05 M tris-HCl (pH 8.3); 2 mM dithiothreitol; 0.6 mM MnCl; 20 ug oligo(dA) 50; 0.1 mM ^3 H-dGTP; and 0.5 units of TdT.\nFor these studies, ddNTPs were dissolved in deionized distilled water and added to the respective reaction mixtures at time zero to give the effective final concentrations. The degree of reaction or inhibition was calculated from simultaneous control reactions. The mode of inhibition and inhibition constants were determined using Linweaver-Burke and Dixon plots. Each of the respective reactions was stopped using 0.5 ml of cold (4 C) 0.1 M sodium pyrophosphate containing 1 mg/ml yeast RNA (hereinafter\"NaPP\") and precipitated with 0.5 ml of cold 25% trichloroacetic acid (hereinafter \"TCA\"). The precipitates centrifuged at 13,000×gravity in a microfuge for one minute; resolubilized in 0.2 ml of 0.3M NaOH; and then reprecipitated with NaPP and TCA. Following a second 0.3 M NaOH resolubilization, 10 ml of scintiverse II (Fisher Scientific Company, Fairlawn, N.J.) was added to each sample for counting in a Beckman LS3700 liquid scintillation counter.\n(§2) It should be noted also that for certain TdT assays, a variety of different initiators were used in place of oligo (dA) 50. These included: activated DNA; 5'-^32 T-GTCCGTCTCTGCCTC-3' (15 MER synthesized on an automated synthesizer using standard phosphoramidite chemistry having a ^32 P-end labeled by a standard Maxam-Gilbert reaction); YEP-FG-2-plasmid DNA; oligo (dC) 18; oligo (dT) 18; and various ^3 H-substrates such as dCTP, dATP, and dTTP in place of ^3 H-dGTP. Reactions utilizing the 15 MER initiator contained either 5 mM MgCl2 or 1 mM CoCl2 in place of MnCl2."}, "[2]": {"system": "fresh leukemia cell cultures", "assay": "Ex-vivo viability of fresh leukemia cells from patients (trypan blue)", "assay_type": "cell-based, human", "conditions": "30 uM CF alone, two instances", "text": "Leukemic blast cells from bone marrow or peripheral blood were obtained from 12 patients; of these, six persons were diagnosed as afflicted with acute lymphatic leukemia; three persons were diagnosed as afflicted with acute myeloblastic leukemia; two persons were diagnosed as afflicted with blastic chronic myelogenous leukemia; and one person was diagnosed as having acute myelogenous leukemia, complicating multiple myeloma. These diagnoses were based upon standard clinical and laboratory criteria. In ten of these twelve patients, blast cells constituted more than 75% of the mononuclear cells. In the eleventh and twelfth patients, 32% and 42% of the mononuclear cells were blast cells.\nThe leukemic cells from each person were enriched on Ficoll-Hypaque medium; washed in phosphate-buffered saline without divalent cations; resuspended in RPMI-1640 medium containing 20% FCS; and then grown in RPMI-1640 media supplemented with 10% FCS. The TdT status of each cell sample was independently determined by conventional biochemical assay before culturing. […] The six TdT-positive cases all had acute lymphoblastic leukemia.\nExperimentally, all twelve fresh leukemia cell cultures were continuously exposed ex-vivo to 250 uM of ddA and 30 uM of CF for 72 hours. Each was then individually evaluated for viability as determined by trytan blue staining. The empirical results are illustrated by FIG. 6. […]"}, "8392": {"system": "8392", "assay": "Growth inhibition, viable cell count by trypan blue exclusion", "assay_type": "cell-based", "conditions": "Homo sapiens; 8392, TdT negative, 48 hour continuous exposure", "method": "(§3) Each cell line was utilized in exponential growth phase. For test purposes, cells were seeded at […] cells/ml in T25 flasks containing 4 ml of culture medium. Cell counts were made using a hemocytometer. Cell viability was determined using the tryptan blue dye exclusion method. The degree of growth inhibition was calculated by comparison with untreated controls.\n(§4) Initially, the effect of a 48 hour continuous exposure to 250 uM and 500 uM of ddA upon four TdT-positive and three TdT-negative cell lines was evaluated.\n(§5) The growth inhibition data of Table V is defined as the ratio of viable cells in the ddA exposed cultures in comparison to control cultures. Each determination reflects the mean of triplicate flasks. It is noted that at 250 uM of ddA, there was marked growth inhibition (30-80%) in all four TdT-positive cell lines whereas there was very little effect among the TdT-negative cells (0-15% growth inhibition). At 500 uM of ddA, the cytotoxicity in the TdT-positive lines was further increased (92-99% growth inhibition). At this concentration level, 2 of the 3 TdT-negative lines also show measureable growth inhibition (40-50%).\n(§6) As a result, another series of experiments was conducted in which the non-selective purinogenic cytotoxicity was reduced. In this experimental series, a variety of different cell lines were pre-incubated for 30 minutes with the adenosine deaminase inhibitor, coformycin (CF). This CF exposure was then followed by a continuous 48 hour exposure to 250 uM ddA with suitable controls. Growth inhibition was defined as the ratio of viable cells in the CF/ddA exposed cell cultures in comparison to control cultures. Each determination reflects the mean of quadruplicate flasks. The results are provided by FIG. 3 and Table VI respectively."}, "HPB-ALL": {"system": "HPB-ALL", "assay": "Growth inhibition, viable cell count by trypan blue exclusion", "assay_type": "cell-based", "conditions": "Homo sapiens, HPBALL, TdT positive, 48 hour continuous exposure", "method": "as §3, §4, §5, §6"}, "ML3": {"system": "ML3", "assay": "Growth inhibition, viable cell count by trypan blue exclusion", "assay_type": "cell-based", "conditions": "Homo sapiens; ML3, TdT negative, 48 hour continuous exposure", "method": "as §3, §4, §5, §6"}, "MOLT-4": {"system": "MOLT-4", "assay": "Growth inhibition, viable cell count by trypan blue exclusion", "assay_type": "cell-based", "conditions": "Homo sapiens; MOLT-4, TdT positive, 48 hour continuous exposure", "method": "as §3, §4, §5, §6"}, "NALM-6": {"system": "NALM-6", "assay": "Growth inhibition, viable cell count by trypan blue exclusion", "assay_type": "cell-based", "conditions": "Homo sapiens; NALM-6, TdT positive, 48 hour continuous exposure", "method": "as §3, §4, §5, §6"}, "298-26": {"system": "298-26", "assay": "Growth inhibition, viable cell count by trypan blue exclusion", "assay_type": "cell-based, Murine", "conditions": "Mus musculus; 298-26, TdT positive, 48 hour continuous exposure", "method": "as §3, §4, §5\n(§7) As a result, another series of experiments was conducted in which the non-selective purinogenic cytotoxicity was reduced. […]"}, "L1210": {"system": "L1210", "assay": "Growth inhibition, viable cell count by trypan blue exclusion", "assay_type": "cell-based", "conditions": "Mus musculus; L1210, TdT negative, 48 hour continuous exposure", "method": "as §3, §4, §5"}, "TdT-positive cell lines": {"system": "TdT-positive cell lines", "assay": "Growth inhibition, summary over TdT-positive cell lines", "assay_type": "cell-based", "conditions": "48 hour", "method": "as §3, §4, §5, §7"}, "TdT-negative cell lines": {"system": "TdT-negative cell lines", "assay": "Growth inhibition, summary over TdT-negative cell lines", "assay_type": "cell-based", "conditions": "48 hour", "method": "as §3, §4, §5"}, "DNA polymerase alpha": {"system": "DNA polymerase alpha", "assay": "DNA polymerase alpha enzyme assay", "assay_type": "biochemical, calf", "method": "as §1\nFor these studies, ddNTPs were dissolved in deionized distilled water and added to the respective reaction mixtures at time zero to give the effective final concentrations. The degree of reaction or inhibition was calculated from simultaneous control reactions. The mode of inhibition and inhibition constants were determined using Linweaver-Burke and Dixon plots. […]"}, "[3]": {"biological_target": "T1, terminal deoxynucleotidyl transferase (TdT)", "assay": "TdT-catalyzed polymerization on 32P-labelled 15 MER initiator, autoradiograph (chain termination)", "assay_type": "biochemical, calf", "conditions": "ddATP as substrate, MgCl2 or CoCl2", "text": "as §2\nIt should be noted that the mechanism of inhibition by any of the ddNTPs upon TdT catalysis is by chain termination. […] A radiolabelled oligomer (^32 P-GTCCGTCTCTGCCTC-3') shown in Lane 1 was used as an initiator for TdT-catalyzed polymerization using: dATP (Lanes 2 and 4); or ddATP (Lanes 3 and 5 ) as substrates. Lanes 2 and 3 represent the reaction products generated in the presence of MgCl2 while Lanes 4 and 5 represent the reaction products generated in the presence of CoCl2 respectively. Each reaction product was electrophoresed on a 20% polyacrylamide gel under denaturing conditions (2.5 hours at 35 watts, 2800 volts). […] Thus, the effectiveness of chain termination by ddATP is clearly established."}}}
{"smiles": "Cc1cn([C@H]2C[C@H](N=[N+]=[N-])[C@@H](CO[P@](=O)(O)O[P@](=O)(O)OP(=O)(O)O)O2)c(=O)[nH]c1=O", "note": "[AZTTP, 3'-azido thymidine triphosphate, reference compound]", "values": [{"measurement": "IC50", "setting": "[1]", "result": 133, "unit": "µM"}]}
{"smiles": "OC[C@H]1O[C@@H](n2cnc3c2N=CNC[C@H]3O)[C@H](O)[C@@H]1O", "note": "[CF, coformycin]", "values": [{"measurement": "effect on cell viability", "setting": "[2]", "result": "no effect"}]}
{"smiles": "Nc1ncnc2c1ncn2[C@H]1CC[C@@H](CO)O1", "note": "[ddA, dideoxyadenosine]", "values": [{"measurement": "inhibition at 250 µM", "setting": "8392", "result": 0, "unit": "%"}, {"measurement": "inhibition at 500 µM", "setting": "8392", "result": 0, "unit": "%"}, {"measurement": "inhibition at 250 µM", "setting": "HPB-ALL", "result": 40, "unit": "%"}, {"measurement": "inhibition at 500 µM", "setting": "HPB-ALL", "result": 99, "unit": "%"}, {"measurement": "inhibition at 250 µM", "setting": "ML3", "result": 0, "unit": "%"}, {"measurement": "inhibition at 500 µM", "setting": "ML3", "result": 40, "unit": "%"}, {"measurement": "inhibition at 250 µM", "setting": "MOLT-4", "result": 60, "unit": "%"}, {"measurement": "inhibition at 500 µM", "setting": "MOLT-4", "result": 92, "unit": "%"}, {"measurement": "inhibition at 250 µM", "setting": "NALM-6", "result": 30, "unit": "%"}, {"measurement": "inhibition at 500 µM", "setting": "NALM-6", "result": 95, "unit": "%"}, {"measurement": "inhibition at 250 µM", "setting": "298-26", "result": 80, "unit": "%"}, {"measurement": "inhibition at 500 µM", "setting": "298-26", "result": 99, "unit": "%"}, {"measurement": "inhibition at 250 µM", "setting": "L1210", "result": 15, "unit": "%"}, {"measurement": "inhibition at 500 µM", "setting": "L1210", "result": 50, "unit": "%"}, {"measurement": "inhibition at 250 µM", "setting": "TdT-positive cell lines; 250 uM ddA, read-out: growth inhibition, range over all four TdT-positive cell lines", "result": "30 to 80", "unit": "%"}, {"measurement": "inhibition at 500 µM", "setting": "TdT-positive cell lines; 500 uM ddA, read-out: growth inhibition, range over TdT-positive lines", "result": "92 to 99", "unit": "%"}, {"measurement": "inhibition at 250 µM", "setting": "TdT-negative cell lines; 250 uM ddA, read-out: growth inhibition, range over TdT-negative cells", "result": "0 to 15", "unit": "%"}, {"measurement": "inhibition at 500 µM", "setting": "TdT-negative cell lines; 500 uM ddA, read-out: growth inhibition, 2 of the 3 TdT-negative lines", "result": "40 to 50", "unit": "%"}]}
{"smiles": "Nc1ncnc2c1ncn2[C@H]1CC[C@@H](COP(=O)(O)OP(=O)(O)OP(=O)(O)O)O1", "note": "[ddATP, 2',3'-dideoxyadenosine triphosphate]", "values": [{"measurement": "IC50", "setting": "[1]", "result": 9, "unit": "µM"}, {"measurement": "effect on TdT polymerization reaction (FIG. 1)", "setting": "[1]; micromolar concentrations of ddATP", "result": "dramatically inhibits"}, {"measurement": "effect on DNA polymerase alpha enzyme activity (FIG. 1)", "setting": "DNA polymerase alpha", "result": "does not recognize"}, {"measurement": "chain termination: residues added by TdT to 15 MER initiator (FIG. 2)", "setting": "[3]", "result": "only one residue is added"}]}
{"smiles": "Nc1ccn([C@H]2CC[C@@H](COP(=O)(O)OP(=O)(O)OP(=O)(O)O)O2)c(=O)n1", "note": "[ddCTP, dideoxycytosine triphosphate]", "values": [{"measurement": "IC50", "setting": "[1]", "result": 24.8, "unit": "µM"}]}
{"smiles": "Nc1nc2c(ncn2[C@H]2CC[C@@H](COP(=O)(O)OP(=O)(O)OP(=O)(O)O)O2)c(=O)[nH]1", "note": "[ddGTP, dideoxyguanosine triphosphate]", "values": [{"measurement": "IC50", "setting": "[1]", "result": 18, "unit": "µM"}]}
{"smiles": "O=c1[nH]cnc2c1ncn2[C@H]1CC[C@@H](COP(=O)(O)OP(=O)(O)OP(=O)(O)O)O1", "note": "[ddITP, dideoxyinosine triphosphate]", "values": [{"measurement": "IC50", "setting": "[1]", "result": 20, "unit": "µM"}]}
{"smiles": "Cc1cn([C@H]2CC[C@@H](COP(=O)(O)OP(=O)(O)OP(=O)(O)O)O2)c(=O)[nH]c1=O", "note": "[ddTTP, 2',3'-dideoxythymidine triphosphate]", "values": [{"measurement": "IC50", "setting": "[1]", "result": 47.2, "unit": "µM"}]}
